{"source": "patent US20250345383A1", "about": "“INTRANASAL ADMINISTRATION OF POLYSULFIDE” (The General Hospital Corporation, priority 2022, published 2025)", "key": {"SH-SY5Y cells [1]": {"system": "SH-SY5Y cells", "assay": "Cell viability of SH-SY5Y cells incubated with MPP+ (crystal violet assay)", "type": "cell-based, human", "settings": "MPP+ 5 mM, 24 h", "experimental": "(§1) Cell viability assays was performed to examine cell viabilities of SH-SY5Y cells or murine primary cortical neurons 24 h after the addition of MPP^+ (5 mM for SH-SY5Y, 50 μM for primary cortical neurons) with vehicle (PBS), Na2S (Sigma-Aldrich), Na2S3 (Dojindo Molecular Technologies, Inc), GSSSG (Glutathione trisulfide, Kyowa Hakko Bio Co., Ltd., Tokyo, Japan), LA (α-Lipoic acid, Sigma-Aldrich) or LASSS (α-Lipoic acid trisulfide, Kyowa Hakko Bio Co., Ltd., Tokyo, Japan). Cell viability was measured using the crystal violet assay."}, "primary cortical neurons [2]": {"system": "primary cortical neurons", "assay": "Relative sulfane sulfur levels in primary cortical neurons (SSip-1 DA)", "type": "cell-based, mouse", "settings": "incubation at 10 μM for 20 minutes; relative to untreated neurons", "experimental": "(§2) Primary cortical neurons were isolated from the cerebral cortices of C57BL/6J mice of both sexes at embryonic day 15, as previously described 39. Primary cortical neurons were maintained at 37° C. in a humidified tissue culture chamber with 5% CO2 and cells were used on day 11 after harvest.\n(§3) Primary cortical neurons or SH-SY5Y cells, a human neuroblastoma cell line (American Type Culture Collection, Manassas, VA, USA), were incubated with SSip-1 DA […] at 37° C. for 20 minutes in the dark. Cells were washed with pre-warmed HBSS containing calcium and magnesium (Thermo Fisher Scientific, Waltham, MA, USA) and then cells were incubated with GSSSG, sodium trisulfide (Na2S3; Dojindo Molecular Technologies, Inc., Rockville, MD, USA), PTN-SSS, or vehicle alone for 20 minutes at 37° C. in the dark. Fluorescence intensities were measured using a microplate reader."}, "mice subjected to SCI": {"system": "mice subjected to SCI", "assay": "Mouse model of spinal cord ischemia (SCI): delayed paraplegia, hindlimb motor function by Basso mouse scale (BMS)", "type": "in vivo", "description": "Adult C57BL/6J mice (12-18 weeks old) of both sexes were purchased from Jackson Laboratory (Bar Harbor, ME, USA). Both male and female mice were used in experiments to investigate the neuroprotective effect of GSSSG on motor function after SCI. […] All mice were housed in a temperature and humidity-controlled room in the animal center with a 12-hour light/dark cycle, and were provided with food and water ab libitum. To permit access by mice that were recovering from surgery, additional food pellets were inserted into hydrated gel placed on the bedding. A randomized paired design was used to minimize the variability between each treatment group. Mice were paired based on weight, age, delivery dates, and when possible, holding cages. After the pairing, mice were randomly assigned to different treatments.\nThe surgical procedures to produce delayed paraplegia in mice were performed as previously described^6 (FIG. 2A). Mice were anesthetized with 5% isoflurane in 100% O2 and tracheally intubated with a 20-gauge catheter (Angiocath; Becton Dickinson, Franklin Lakes, NJ, USA). […] The paravertebral muscle temperature was measured using a T-type implantable thermocouple probe (IT-18) and a T-type pod (ADInstruments, Colorado Springs, CO, USA). […] A median sternotomy extended from the apex of the manubrium to the second rib. The aortic arch was gently isolated between the left common carotid artery (LCCA) and the left subclavian artery (LSA), avoiding the vagus nerve and the left recurrent laryngeal nerve. […] After ischemia, the clips were removed in reverse order. Incisions were closed in layers and mechanical ventilation was discontinued. After stable spontaneous respiration was confirmed, mice were extubated.\nThe previously described surgical procedures^6 were modified as follows. The respiratory rate during the procedure was increased to 230 breaths/minute, because hyperventilation promotes the occurrence of delayed paraplegia caused by spinal cord ischemia^33. A laser Doppler perfusion monitor (moorVMS-LDF1; Moor Instruments, Millwey, UK) was used to monitor the femoral artery blood flow^28,29. […] To improve the accuracy of surgical procedures, a microscope (Leica MZ95; Leica Microsystems, Buffalo Grove, IL, USA) was used to isolate the aortic arch and place the clips.\nStudy drugs were administered intranasally using a single-channel pipettor. Mice were anesthetized with 3% isoflurane using a non-rebreathing circuit with a mouse nose cone (VetEquip, Inc., Livermore, CA, USA). While the drugs were administered, the nose cone was removed and mice were allowed to breathe air. Approximately 6 μL of each drug was administered into the mouse's nostrils and the mouse inhaled the droplets during inspiration. […]"}, "[3]": {"system": "sulfane sulfur in olfactory bulb and forebrain, whole spinal cord", "assay": "Relative sulfane sulfur levels in olfactory bulb and forebrain and whole spinal cord after intranasal PTN-SSS (SSip-1)", "type": "in vivo, mouse", "settings": "30 minutes after intranasal 50 mg/kg PTN-SSS; vs vehicle alone", "experimental": "At 30 minutes after intranasal administration of 50 mg/kg of PTN-SSS, the olfactory bulb and forebrain and the whole spinal cord were harvested. Tissues were homogenized in HBSS containing […] of SSip-1. The fluorescence intensities of supernatants were measured."}, "SH-SY5Y cells [4]": {"system": "SH-SY5Y cells", "assay": "Cell viability after OGD/R, SH-SY5Y cells", "type": "cell-based, human", "experimental": "After reoxygenation, cell viability and cell injury were assessed using crystal violet and lactate dehydrogenase (LDH) assays, as previously described^39."}, "SH-SY5Y cells [5]": {"system": "SH-SY5Y cells", "assay": "Relative sulfane sulfur levels in SH-SY5Y cells (SSip-1 DA)", "type": "cell-based, human", "settings": "PTN-SSS 10-50 μM; vs vehicle-only treated cells", "experimental": "as §3"}, "[6]": {"assay": "Water solubility of PTN-SSS", "type": "physicochemical"}, "[7]": {"assay": "Stability of PTN-SSS in solution", "type": "physicochemical", "settings": "pH 4.0-9.0 at room temperature"}, "[8]": {"system": "murine primary cortical neurons", "assay": "Cell viability of murine primary cortical neurons incubated with MPP+ (crystal violet assay)", "type": "cell-based, mouse", "settings": "MPP+ 50 μM, 24 hours", "experimental": "as §1"}, "[9]": {"assay": "LC-MS/MS of ^34S-labeled GSSSG and sulfane sulfur species in CNS and plasma after intranasal GS^34SSG", "type": "in vivo, mouse", "experimental": "We used LC-MS/MS analysis to measure the amount of ^34S-labeled GSSSG ([^32S2, ^34S]GSSSG) in the CNS and plasma after intranasal administration of GS^34SSG, an isotope of endogenous GSSSG^9,35,36. The ratios of ^34S-labeled sulfane sulfur species ([^32S, ^34S]GSSH, [^32S, ^34S]cysteine hydropersulfide (CysSSH), and [^32S2, ^34S]cysteine trisulfide (CysSSSCys)) to endogenous sulfane sulfur species ([^32S2]GSSH, [^32S2]CysSSH, and […]) were also quantitatively evaluated. At 30 minutes after intranasal administration of 50 mg/kg of GS^34SSG, blood was obtained and four different central nervous tissues were harvested: olfactory bulb and forebrain; brainstem; cervical and thoracic spinal cord, and lumbar spinal cord. A total of 30 mg of each tissue was homogenized in 300 μl of ice-cold methanol solution containing 5 mM β-(4-hydroxyphenyl)ethyl iodoacetamide (HPE-IAM; Santa Cruz Biotechnology, Dallas, TX, USA). Twenty-five μl of plasma was mixed with 75 μl of ice-cold methanol solution containing 5 mM HPE-IAM. Samples were incubated for 20 minutes at 37° C. in the dark. After centrifugation (14,000×g for tissues, 1,870×g for plasma, 10 minutes, 4° C.), the supernatant was separated and diluted with 0.1% formic acid for LC-MS/MS analysis, and the pellet was sonicated to measure the protein concentration by BCA assay. The amount of [^32S2, ^34S]GSSSG was quantified in selective reaction monitoring (SRM) with precursor ion (647.14 m/z), product ion (389.1 m/z), and higher energy collisional dissociation (21 v). The ratios of [^32S, ^34S]GSSH to [^32S2]GSSH, [^32S, ^34S]CysSSH to [^32S2]CysSSH, and [^32S2, ^34S]CysSSSCys to [^32S3]CysSSSCys were calculated from their peak area measured by Dionex UltiMate 3000 RS UPLC-Orbitrap Exploris 480 mass spectrometer (Thermo Fisher Scientific, Waltham, MA, USA). In brief, samples were subjected to the UPLC system with a Hypersil Gold C-18 (100×2.1 mm, 3.0 μm, Thermo Fisher Scientific, Waltham, MA, USA) column and were then eluted by a linear methanol gradient of the mobile phase (0-90%, 15 minutes) in the presence of 0.1% formic acid at a flow rate of 0.2 ml/minute at 40° C. The raw data were analyzed by Compound Discoverer 3.3 software (Thermo Fisher Scientific, Waltham, MA, USA). The molecular weights of these sulfane sulfur species combined with HPE-IAM were determined based on previous reports^9,11,37."}, "primary cortical neurons [10]": {"system": "primary cortical neurons", "assay": "Cell viability after oxygen and glucose deprivation/reoxygenation (OGD/R), primary cortical neurons", "type": "cell-based, mouse", "settings": "GSSSG at 30 μM, GSH at 60 μM, GSSG at 30 μM; vs vehicle-only treated cells", "experimental": "as §2, with “harvest. […] After reoxygenation, cell viability and cell injury were assessed using crystal violet and lactate dehydrogenase (LDH) assays, as previously described^39.” for “harvest.”"}, "[11]": {"settings": "30 minutes after intranasal 50 mg/kg GS^34SSG, mean ± SD"}}, "data": [{"smiles": "[Na+].[Na+].[S-]S[S-]", "note": "[Na2S3, sodium trisulfide, reference compound]", "values": [{"measurement": "viability of MPP+-treated SH-SY5Y cells", "setting": "SH-SY5Y cells [1]; 10 μM each", "result": "increased the viability"}, {"measurement": "levels of intracellular sulfane sulfur in primary cortical neurons", "setting": "primary cortical neurons [2]", "result": "increased levels of intracellular sulfane sulfur"}]}, {"smiles": "CC(C)(CO)[C@@H](O)C(=O)NCCC(=O)NCCSSSCCNC(=O)CCNC(=O)[C@H](O)C(C)(C)CO", "note": "[PTN-SSS, pantethine trisulfide]", "values": [{"measurement": "male mice rescued from delayed paraplegia", "setting": "mice subjected to SCI; PTN-SSS study, n=9 per group, intranasal PTN-SSS 50 mg/kg or PTN 47.3 mg/kg at 0, 8, 23, 32 hours after surgery", "result": 66, "unit": "%"}, {"measurement": "sulfane sulfur levels in the olfactory bulb and forebrain and the whole spinal cord", "setting": "[3]", "result": "increased sulfane sulfur levels"}, {"measurement": "SH-SY5Y viability after OGD/R, crystal violet assay", "setting": "SH-SY5Y cells [4]; PTN-SSS at 10 μM, 25 μM, or 50 μM, vs vehicle-only treated cells", "result": "significantly improved"}, {"measurement": "SH-SY5Y viability after OGD/R, crystal violet assay", "setting": "SH-SY5Y cells [4]; PTN-SSS at 100 μM", "result": "did not improve cell viability"}, {"measurement": "sulfane sulfur levels in SH-SY5Y cells", "setting": "SH-SY5Y cells [5]", "result": "increased significantly"}, {"measurement": "water solubility", "setting": "[6]", "result": "> 50", "unit": "mg/mL"}, {"measurement": "stable in solution", "setting": "[7]", "result": "at least 4 days"}]}, {"smiles": "O=C(O)CCCCC1CCSSS1", "note": "(centres unmarked) [LA-SSS, 1,2,3-trithiane-4-pentanoic acid]", "values": [{"measurement": "protection of murine primary cortical neurons from the effects of MPP+ treatment", "setting": "[8]", "result": "protected"}]}, {"smiles": "N[C@@H](CCC(=O)N[C@@H](CS[34S]SC[C@H](NC(=O)CC[C@H](N)C(=O)O)C(=O)NCC(=O)O)C(=O)NCC(=O)O)C(=O)O", "note": "[GS^34SSG]", "values": [{"measurement": "[^32S2, ^34S]GSSSG concentration in plasma", "setting": "[9]; [11]", "result": "25 ± 10", "unit": "nM"}, {"measurement": "[^32S2, ^34S]GSSSG in brainstem", "setting": "[9]; [11]", "result": "226±101", "unit": "pmol/mg protein"}, {"measurement": "[^32S2, ^34S]GSSSG in cervical and thoracic spinal cord", "setting": "[9]; [11]", "result": "414±98", "unit": "pmol/mg protein"}, {"measurement": "[^32S2, ^34S]GSSSG in lumbar spinal cord", "setting": "[9]; [11]", "result": "317±111", "unit": "pmol/mg protein"}, {"measurement": "[^32S2, ^34S]GSSSG in olfactory bulb and forebrain", "setting": "[9]; [11]", "result": "128±67", "unit": "pmol/mg protein"}, {"measurement": "ratio of [^32S2, ^34S]CysSSSCys to [^32S3]CysSSSCys in brain and spinal cord", "setting": "[9]; [11]", "result": "31.8±9.8"}, {"measurement": "ratio of [^32S, ^34S]GSSH to [^32S2]GSSH in brain and spinal cord", "setting": "[9]; [11]", "result": "6.5±2.8"}, {"measurement": "concentration of ^34S-labeled GSSSG in the central nervous system", "setting": "[9]; 30 minutes after intranasal GS^34SSG, all CNS tissues", "result": "268±140", "unit": "pmol/mg protein"}, {"measurement": "level of ^34S-labeled CysSSH in lumbar spinal cord", "setting": "[9]; after intranasal GS^34SSG, worked out from previously reported endogenous CysSSH level", "result": "~18", "unit": "pmol/mg protein"}, {"measurement": "level of ^34S-labeled GSSH in lumbar spinal cord", "setting": "[9]; after intranasal GS^34SSG, worked out from previously reported endogenous GSSH level", "result": "approximately 1,600 pmol/mg protein"}]}, {"smiles": "N[C@@H](CCC(=O)N[C@@H](CS)C(=O)NCC(=O)O)C(=O)O", "note": "[GSH, glutathione, reference compound]", "values": [{"measurement": "mice in which development of delayed paraplegia was prevented", "setting": "mice subjected to SCI; male mice, n=11 per group, intranasal at 0, 8, 23, 32 hours after surgery, GSSSG 50 mg/kg, GSH 45.2 mg/kg", "result": 27, "unit": "%"}, {"measurement": "cell viability after OGD/R, crystal violet assay (GSSSG, GSH, GSSG comparison)", "setting": "primary cortical neurons [10]", "result": "did not improve cell viability"}]}, {"smiles": "[Na+].[Na+].[S-2]", "note": "[Na2S]", "values": [{"measurement": "viability of SH-SY5Y cells treated with MPP+", "setting": "SH-SY5Y cells [1]; Na2S doses between 1 and 100 μM", "result": "did not improve the viability"}]}]}
